Measurements reported in PubChem BioAssay (NCI).
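Dose response: 5 concentrations. Exposure: 48 h. Format: 96-well plates. Endpoint: linear interpolation; highest concentration if not reached. TGI: total growth inhibition.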

Key:
Assay in all cases: inhibition of tumour cell growth, NCI panel, 48 h
786-0 renal = tested on: 786-0 renal
SK-MEL-28 melanoma = tested on: SK-MEL-28 melanoma
OVCAR-4 ovarian = tested on: OVCAR-4 ovarian
NCI-H460 lung = tested on: NCI-H460 lung
SK-MEL-2 melanoma = tested on: SK-MEL-2 melanoma
CAKI-1 renal = tested on: CAKI-1 renal
A498 renal = tested on: A498 renal
HCC-2998 colon = tested on: HCC-2998 colon
SNB-78 CNS = tested on: SNB-78 CNS
NCI-H226 lung = tested on: NCI-H226 lung
NCI-H522 lung = tested on: NCI-H522 lung
K-562 leukemia = tested on: K-562 leukemia
SNB-19 CNS = tested on: SNB-19 CNS
HOP-62 NSCLC = tested on: HOP-62 NSCLC
UO-31 renal = tested on: UO-31 renal
LXFL 529 NSCLC = tested on: LXFL 529 NSCLC
SK-MEL-5 melanoma = tested on: SK-MEL-5 melanoma
RPMI-8226 leukemia = tested on: RPMI-8226 leukemia
HOP-18 NSCLC = tested on: HOP-18 NSCLC
SF-539 CNS = tested on: SF-539 CNS
OVCAR-3 ovarian = tested on: OVCAR-3 ovarian
RXF 393 renal = tested on: RXF 393 renal
M19-MEL melanoma = tested on: M19-MEL melanoma
XF 498 CNS = tested on: XF 498 CNS
DLD-1 colon = tested on: DLD-1 colon
SW-620 colon = tested on: SW-620 colon
IGROV1 ovarian = tested on: IGROV1 ovarian
HL-60(TB) leukemia = tested on: HL-60(TB) leukemia
SN12C renal = tested on: SN12C renal
KM20L2 colon = tested on: KM20L2 colon
LOX IMVI melanoma = tested on: LOX IMVI melanoma
SNB-75 CNS = tested on: SNB-75 CNS
UACC-257 melanoma = tested on: UACC-257 melanoma
U251 CNS = tested on: U251 CNS
RXF-631 renal = tested on: RXF-631 renal
HCT-15 colon = tested on: HCT-15 colon
SF-295 CNS = tested on: SF-295 CNS
SK-OV-3 ovarian = tested on: SK-OV-3 ovarian
COLO 205 colon = tested on: COLO 205 colon
HOP-92 NSCLC = tested on: HOP-92 NSCLC
UACC-62 melanoma = tested on: UACC-62 melanoma
NCI-H23 lung = tested on: NCI-H23 lung
DMS 114 small cell lung = tested on: DMS 114 small cell lung
CCRF-CEM leukemia = tested on: CCRF-CEM leukemia
MOLT-4 leukemia = tested on: MOLT-4 leukemia
ACHN renal = tested on: ACHN renal
HCT-116 colon = tested on: HCT-116 colon
SR leukemia = tested on: SR leukemia
EKVX NSCLC = tested on: EKVX NSCLC
SF-268 CNS = tested on: SF-268 CNS
MALME-3M melanoma = tested on: MALME-3M melanoma
HT29 colon = tested on: HT29 colon
KM12 colon = tested on: KM12 colon
DMS 273 small cell lung = tested on: DMS 273 small cell lung
TK-10 renal = tested on: TK-10 renal
OVCAR-5 ovarian = tested on: OVCAR-5 ovarian
M14 melanoma = tested on: M14 melanoma
A549 NSCLC = tested on: A549 NSCLC
OVCAR-8 ovarian = tested on: OVCAR-8 ovarian

Measured: TGI

Clc1ccc2c(c1)[nH]c1c2nc2sccn21
> 100 µM: 786-0 renal | SK-MEL-28 melanoma | OVCAR-4 ovarian | NCI-H460 lung | SK-MEL-2 melanoma | CAKI-1 renal | A498 renal | HCC-2998 colon | SNB-78 CNS | NCI-H226 lung | NCI-H522 lung | K-562 leukemia | SNB-19 CNS | HOP-62 NSCLC | UO-31 renal | LXFL 529 NSCLC | SK-MEL-5 melanoma | RPMI-8226 leukemia | HOP-18 NSCLC | SF-539 CNS | OVCAR-3 ovarian | RXF 393 renal | M19-MEL melanoma | XF 498 CNS | DLD-1 colon | SW-620 colon | IGROV1 ovarian | HL-60(TB) leukemia | SN12C renal | KM20L2 colon | LOX IMVI melanoma | SNB-75 CNS | UACC-257 melanoma | U251 CNS | RXF-631 renal | HCT-15 colon | SF-295 CNS | SK-OV-3 ovarian | COLO 205 colon | HOP-92 NSCLC | UACC-62 melanoma | NCI-H23 lung | DMS 114 small cell lung | CCRF-CEM leukemia | MOLT-4 leukemia | ACHN renal | HCT-116 colon | SR leukemia | EKVX NSCLC | SF-268 CNS | MALME-3M melanoma | HT29 colon | KM12 colon | DMS 273 small cell lung | TK-10 renal | OVCAR-5 ovarian | M14 melanoma | A549 NSCLC | OVCAR-8 ovarian

O=c1c(O)cccn1C1OC(CO)C(O)C1O (configuration not stated)
> 100 µM: 786-0 renal | SK-MEL-28 melanoma | OVCAR-4 ovarian | NCI-H460 lung | SK-MEL-2 melanoma | CAKI-1 renal | A498 renal | HCC-2998 colon | SNB-78 CNS | NCI-H226 lung | NCI-H522 lung | K-562 leukemia | SNB-19 CNS | UO-31 renal | LXFL 529 NSCLC | RPMI-8226 leukemia | HOP-18 NSCLC | RXF 393 renal | DLD-1 colon | IGROV1 ovarian | SN12C renal | KM20L2 colon | LOX IMVI melanoma | SNB-75 CNS | UACC-257 melanoma | U251 CNS | RXF-631 renal | HCT-15 colon | SK-OV-3 ovarian | COLO 205 colon | HOP-92 NSCLC | UACC-62 melanoma | NCI-H23 lung | DMS 114 small cell lung | CCRF-CEM leukemia | ACHN renal | HCT-116 colon | EKVX NSCLC | SF-268 CNS | MALME-3M melanoma | HT29 colon | KM12 colon | DMS 273 small cell lung | TK-10 renal | OVCAR-5 ovarian | M14 melanoma | A549 NSCLC | OVCAR-8 ovarian
